Broadly, the IC50 is the concentration that inhibits the measured activity by half. As usually defined, the Ki is the dissociation constant of the complex between target and ligand, obtained from inhibition or displacement.

Series [1] in a line: DRUGMATRIX: Glutamate, NMDA, Phencyclidine radioligand binding (ligand: [3H] TCP). The class given is cell membranes, Rattus norvegicus, Wistar, Cerebral cortex, Membrane. As to conditions: Not Active = under 50% inhibition at 10 µM.
In another series the target is T1, Substance-K receptor (Homo sapiens, UniProt P21452). Note: in other assays of this panel Not Active means under 50% inhibition at 10 µM.
T1 sequence (P21452 whole entry): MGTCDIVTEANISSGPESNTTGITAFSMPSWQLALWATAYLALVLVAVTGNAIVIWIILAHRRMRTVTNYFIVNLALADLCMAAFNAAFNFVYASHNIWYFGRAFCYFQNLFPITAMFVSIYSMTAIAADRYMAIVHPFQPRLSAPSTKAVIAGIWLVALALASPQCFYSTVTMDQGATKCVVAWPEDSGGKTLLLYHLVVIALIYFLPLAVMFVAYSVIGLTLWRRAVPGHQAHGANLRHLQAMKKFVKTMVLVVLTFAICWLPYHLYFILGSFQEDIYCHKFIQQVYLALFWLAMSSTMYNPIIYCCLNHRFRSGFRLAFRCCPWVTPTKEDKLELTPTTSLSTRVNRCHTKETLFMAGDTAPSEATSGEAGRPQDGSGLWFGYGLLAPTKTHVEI
The class given is cell membranes, CHO, Membrane.

Series [2] deals with T2, 5-hydroxytryptamine receptor 1A (Rattus norvegicus, UniProt P19327).
T2 sequence (P19327 whole entry): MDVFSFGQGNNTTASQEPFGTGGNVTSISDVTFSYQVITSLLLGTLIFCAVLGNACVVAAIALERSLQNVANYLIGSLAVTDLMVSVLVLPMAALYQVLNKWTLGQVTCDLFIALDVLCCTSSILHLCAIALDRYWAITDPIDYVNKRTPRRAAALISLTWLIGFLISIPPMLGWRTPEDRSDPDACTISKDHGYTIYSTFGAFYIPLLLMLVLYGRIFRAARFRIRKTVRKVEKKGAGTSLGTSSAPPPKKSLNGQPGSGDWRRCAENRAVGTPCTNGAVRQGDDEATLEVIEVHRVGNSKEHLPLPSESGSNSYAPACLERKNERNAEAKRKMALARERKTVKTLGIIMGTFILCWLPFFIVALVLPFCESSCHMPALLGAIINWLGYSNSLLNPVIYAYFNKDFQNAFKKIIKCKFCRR
In kind it is cell membranes, Membrane. As to conditions: cho-k1.

The target of the next series is Cytochrome P450 2E1 (Homo sapiens, UniProt P05181). As to conditions: bti-tn-5b1-4. Note: in other assays of this panel Not Active means under 50% inhibition at 10 µM.
Another series addresses D(1A) dopamine receptor (Homo sapiens, UniProt P21728). As to the kind of experiment: DRUGMATRIX: Dopamine D1 radioligand binding (ligand: [3H] SCH-23390). In kind it is cell membranes, Membrane. As to conditions: cho; Not Active = under 50% inhibition at 10 µM.
The target of the next series is Glycine receptor (Rattus norvegicus, UniProt P22771+P24524+P07727+P20781). In kind it is cell membranes, Wistar, Spinal cord, Membrane. Note: in other assays of this panel Not Active means under 50% inhibition at 10 µM.
In another series the target is T3, Progesterone receptor (Bos taurus, UniProt Q690N0).
T3 sequence (Q690N0 whole entry): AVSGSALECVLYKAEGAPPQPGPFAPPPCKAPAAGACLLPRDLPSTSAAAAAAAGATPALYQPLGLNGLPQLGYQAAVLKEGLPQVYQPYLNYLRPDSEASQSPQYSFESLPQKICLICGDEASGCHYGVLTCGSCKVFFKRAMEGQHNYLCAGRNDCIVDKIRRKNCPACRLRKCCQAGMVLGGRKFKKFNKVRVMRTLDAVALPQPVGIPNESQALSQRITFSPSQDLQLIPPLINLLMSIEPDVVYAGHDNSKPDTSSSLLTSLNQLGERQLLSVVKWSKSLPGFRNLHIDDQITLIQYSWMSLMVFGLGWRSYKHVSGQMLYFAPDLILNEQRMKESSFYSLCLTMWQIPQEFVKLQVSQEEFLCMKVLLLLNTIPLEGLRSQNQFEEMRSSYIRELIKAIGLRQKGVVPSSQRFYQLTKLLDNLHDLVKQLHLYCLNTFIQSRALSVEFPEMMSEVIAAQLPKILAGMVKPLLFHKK
As to the kind of experiment: DRUGMATRIX: Progesterone radioligand binding (ligand: [3H] R-5020). In kind it is tissue-based, Uterus. As to conditions: Not Active = under 50% inhibition at 10 µM.

A further series addresses T4, Neutrophil elastase (Homo sapiens, UniProt P08246).
T4 sequence (P08246 whole entry): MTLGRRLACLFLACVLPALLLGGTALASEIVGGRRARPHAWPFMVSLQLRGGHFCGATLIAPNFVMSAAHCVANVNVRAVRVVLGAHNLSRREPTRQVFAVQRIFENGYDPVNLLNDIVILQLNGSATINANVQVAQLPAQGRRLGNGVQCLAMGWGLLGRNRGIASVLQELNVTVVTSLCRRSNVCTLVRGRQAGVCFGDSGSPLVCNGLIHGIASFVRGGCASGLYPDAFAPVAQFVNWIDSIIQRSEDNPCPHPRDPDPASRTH
In kind it is tissue-based.

Series [3] deals with Sodium-dependent noradrenaline transporter (Homo sapiens, UniProt P23975). The series can be described thus: DRUGMATRIX: Norepinephrine Transporter radioligand binding (ligand: [125I] RTI-55). The class given is cell membranes, MDCK, Membrane. As to conditions: Not Active = under 50% inhibition at 10 µM.
The target in series [4] is T5, Vasoactive intestinal polypeptide receptor 1 (Homo sapiens, UniProt P32241). Note: in other assays of this panel Not Active means under 50% inhibition at 10 µM.
T5 sequence (P32241 whole entry): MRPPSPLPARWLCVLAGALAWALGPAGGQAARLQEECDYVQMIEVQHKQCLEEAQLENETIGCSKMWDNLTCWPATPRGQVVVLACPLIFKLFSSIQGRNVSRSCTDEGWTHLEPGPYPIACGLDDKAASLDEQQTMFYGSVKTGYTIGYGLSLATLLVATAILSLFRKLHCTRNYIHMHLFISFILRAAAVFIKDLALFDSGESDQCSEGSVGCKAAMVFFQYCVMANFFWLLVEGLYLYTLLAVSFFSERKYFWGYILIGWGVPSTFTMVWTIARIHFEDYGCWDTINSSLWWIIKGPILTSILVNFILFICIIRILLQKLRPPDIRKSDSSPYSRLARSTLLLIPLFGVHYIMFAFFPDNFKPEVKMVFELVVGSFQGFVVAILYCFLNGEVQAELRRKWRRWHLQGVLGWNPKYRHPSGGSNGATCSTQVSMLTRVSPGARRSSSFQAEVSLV
In kind it is cell membranes, Membrane. As to conditions: ht-29.

The target in series [5] is C-C chemokine receptor type 2 (Homo sapiens, UniProt P41597). The class given is cell membranes, CHO-K1, Membrane. As to conditions: cho-k1. Note: in other assays of this panel Not Active means under 50% inhibition at 10 µM.
The target in series [6] is Receptor tyrosine-protein kinase erbB-2 (Homo sapiens, UniProt P04626). As to the kind of experiment: biochemical. Conditions: insect cells. The class given is cell-based, Insect cells.
Chain of Receptor tyrosine-protein kinase erbB-2 (P04626 whole entry): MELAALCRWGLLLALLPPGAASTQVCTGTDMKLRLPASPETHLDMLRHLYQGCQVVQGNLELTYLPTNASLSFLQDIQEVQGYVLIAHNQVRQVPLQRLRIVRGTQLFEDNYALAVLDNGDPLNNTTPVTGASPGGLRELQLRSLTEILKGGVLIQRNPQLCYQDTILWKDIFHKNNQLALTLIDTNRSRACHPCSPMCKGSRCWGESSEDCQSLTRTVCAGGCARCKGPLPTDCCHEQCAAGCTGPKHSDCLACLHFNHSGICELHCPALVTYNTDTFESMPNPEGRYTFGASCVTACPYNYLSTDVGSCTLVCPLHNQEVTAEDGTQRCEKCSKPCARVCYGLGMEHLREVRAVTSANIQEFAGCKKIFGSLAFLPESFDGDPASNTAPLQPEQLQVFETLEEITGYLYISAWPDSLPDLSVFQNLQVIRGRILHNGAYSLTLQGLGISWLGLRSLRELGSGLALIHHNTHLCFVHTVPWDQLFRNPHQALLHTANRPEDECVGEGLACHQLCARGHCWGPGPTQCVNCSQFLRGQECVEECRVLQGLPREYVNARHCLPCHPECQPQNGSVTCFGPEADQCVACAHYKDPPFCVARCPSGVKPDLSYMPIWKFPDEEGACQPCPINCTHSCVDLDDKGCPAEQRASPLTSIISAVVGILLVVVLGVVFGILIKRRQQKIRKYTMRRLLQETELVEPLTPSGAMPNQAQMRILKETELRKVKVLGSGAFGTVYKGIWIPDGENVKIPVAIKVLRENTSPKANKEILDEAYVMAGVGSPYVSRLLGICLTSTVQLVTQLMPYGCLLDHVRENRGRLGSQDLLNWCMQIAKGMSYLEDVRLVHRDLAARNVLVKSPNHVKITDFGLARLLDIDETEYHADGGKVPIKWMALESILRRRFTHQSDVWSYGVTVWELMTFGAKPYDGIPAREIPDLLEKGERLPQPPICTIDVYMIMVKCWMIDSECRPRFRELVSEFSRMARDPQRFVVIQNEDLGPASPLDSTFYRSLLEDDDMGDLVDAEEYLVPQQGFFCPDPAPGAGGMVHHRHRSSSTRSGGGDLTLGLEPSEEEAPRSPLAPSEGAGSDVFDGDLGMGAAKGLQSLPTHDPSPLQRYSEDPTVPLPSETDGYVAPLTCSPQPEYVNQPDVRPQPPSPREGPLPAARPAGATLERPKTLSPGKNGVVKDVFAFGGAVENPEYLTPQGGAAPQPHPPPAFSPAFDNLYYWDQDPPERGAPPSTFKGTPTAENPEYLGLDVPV

Chain of D(1A) dopamine receptor (P21728 whole entry): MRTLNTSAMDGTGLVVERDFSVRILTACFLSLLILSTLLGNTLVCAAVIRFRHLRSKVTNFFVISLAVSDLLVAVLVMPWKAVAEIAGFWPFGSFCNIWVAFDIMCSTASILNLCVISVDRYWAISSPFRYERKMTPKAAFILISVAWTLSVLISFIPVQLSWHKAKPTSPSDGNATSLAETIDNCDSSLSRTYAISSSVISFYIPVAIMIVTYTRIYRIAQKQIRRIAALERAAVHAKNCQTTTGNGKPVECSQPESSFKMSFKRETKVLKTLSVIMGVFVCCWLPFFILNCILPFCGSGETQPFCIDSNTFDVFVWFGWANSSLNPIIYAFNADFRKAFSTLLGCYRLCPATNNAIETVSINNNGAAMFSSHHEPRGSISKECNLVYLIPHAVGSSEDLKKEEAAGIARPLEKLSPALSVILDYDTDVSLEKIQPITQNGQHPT
Chain of C-C chemokine receptor type 2 (P41597 whole entry): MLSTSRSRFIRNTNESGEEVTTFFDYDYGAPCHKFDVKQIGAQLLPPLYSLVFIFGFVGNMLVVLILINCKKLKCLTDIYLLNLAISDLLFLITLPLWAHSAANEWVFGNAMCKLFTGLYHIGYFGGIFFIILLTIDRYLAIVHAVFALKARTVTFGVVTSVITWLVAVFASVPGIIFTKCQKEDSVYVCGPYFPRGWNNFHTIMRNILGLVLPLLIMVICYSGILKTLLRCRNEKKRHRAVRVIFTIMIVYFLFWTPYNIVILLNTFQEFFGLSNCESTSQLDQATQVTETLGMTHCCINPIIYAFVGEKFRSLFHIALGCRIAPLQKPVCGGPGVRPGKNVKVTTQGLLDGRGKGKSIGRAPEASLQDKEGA
Chain of Sodium-dependent noradrenaline transporter (P23975 whole entry): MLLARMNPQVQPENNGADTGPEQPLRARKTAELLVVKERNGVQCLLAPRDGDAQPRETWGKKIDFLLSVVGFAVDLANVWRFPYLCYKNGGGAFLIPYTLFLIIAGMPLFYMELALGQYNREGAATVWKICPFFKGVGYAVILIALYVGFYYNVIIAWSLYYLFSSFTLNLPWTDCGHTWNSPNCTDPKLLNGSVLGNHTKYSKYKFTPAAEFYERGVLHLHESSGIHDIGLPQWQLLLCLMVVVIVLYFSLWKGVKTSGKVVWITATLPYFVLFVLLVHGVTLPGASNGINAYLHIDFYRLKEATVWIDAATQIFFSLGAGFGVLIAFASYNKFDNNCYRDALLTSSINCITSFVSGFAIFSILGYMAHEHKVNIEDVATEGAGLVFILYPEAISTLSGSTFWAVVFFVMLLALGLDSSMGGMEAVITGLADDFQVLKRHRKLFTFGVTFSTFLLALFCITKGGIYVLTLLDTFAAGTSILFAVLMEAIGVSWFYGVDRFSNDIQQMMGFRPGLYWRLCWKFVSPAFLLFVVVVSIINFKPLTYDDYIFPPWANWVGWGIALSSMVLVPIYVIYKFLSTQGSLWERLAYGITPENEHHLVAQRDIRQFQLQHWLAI
Chain of Cytochrome P450 2E1 (P05181 whole entry): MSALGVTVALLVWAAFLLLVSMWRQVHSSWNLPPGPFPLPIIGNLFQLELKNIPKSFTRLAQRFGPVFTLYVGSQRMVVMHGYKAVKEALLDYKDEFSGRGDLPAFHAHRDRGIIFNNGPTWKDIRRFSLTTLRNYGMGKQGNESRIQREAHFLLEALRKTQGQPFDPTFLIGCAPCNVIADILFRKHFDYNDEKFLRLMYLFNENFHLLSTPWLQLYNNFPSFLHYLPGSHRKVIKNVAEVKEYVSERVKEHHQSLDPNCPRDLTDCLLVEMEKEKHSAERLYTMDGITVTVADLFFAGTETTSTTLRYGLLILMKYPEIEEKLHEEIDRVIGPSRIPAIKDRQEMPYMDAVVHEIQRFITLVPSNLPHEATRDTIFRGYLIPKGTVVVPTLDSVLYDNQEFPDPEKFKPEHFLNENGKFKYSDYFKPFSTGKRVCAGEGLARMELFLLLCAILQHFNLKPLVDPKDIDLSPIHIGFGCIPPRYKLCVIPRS

For `CC1=C(CC(=O)O)c2cc(F)ccc2/C1=C\c1ccc([S+](C)[O-])cc1` (centres undefined), the concentration for half-maximal inhibition (IC50) entry (in series [1]; on Substance-K receptor (cho); in [2]; at Cytochrome P450 2E1; on D(1A) dopamine receptor; on Glycine receptor) was “Not Active” each time. Moreover, the IC50 result (at Progesterone receptor; against Neutrophil elastase; in series [3] (mdck); in series [4]; in [5]; in series [6]) was “Not Active” in each case. For the same compound, the inhibitory constant (Ki) entry (in series [1]; on Cytochrome P450 2E1) was “Not Active” in each case.

Turning to `N[C@H](CSC(=S)NCc1ccccc1)C(=O)O`, the 50% inhibitory concentration (IC50) entry (in series [1]; against Substance-K receptor (cho); in series [2]; against Cytochrome P450 2E1; at D(1A) dopamine receptor; against Glycine receptor) was “Not Active” in each case. Further, the concentration for half-maximal inhibition (IC50) entry (on Progesterone receptor; against Neutrophil elastase; in series [3] (mdck); in series [4]; in series [5]; in [6]) was “Not Active” each time. Further, the Ki result (in series [1]; on Cytochrome P450 2E1) was “Not Active” in each case.

Regarding `CC(=O)N[C@@H]1[C@H](Oc2c3cc4cc2Oc2ccc(cc2Cl)[C@@H](O[C@@H]2O[C@@H](CO)[C@@H](O)[C@H](O)[C@@H]2NC(C)=O)[C@@H]2NC(=O)[C@H](NC(=O)[C@@H]4NC(=O)[C@H]4NC(=O)[C@@H](Cc5ccc(c(Cl)c5)O3)NC(=O)[C@H](N)c3ccc(O)c(c3)Oc3cc(O)cc4c3)c3ccc(O)c(c3)-c3c(O[C@H]4O[C@H](CO)[C@@H](O)[C@@H](O)[C@@H]4O)cc(O)cc3[C@@H](C(=O)O)NC2=O)O[C@@H](CO)[C@@H](O)[C@@H]1O`, the IC50 entry (in series [1]; at Substance-K receptor (cho); in [2]; on Cytochrome P450 2E1; at D(1A) dopamine receptor; on Glycine receptor) was “Not Active” each time. Also, the IC50 result (on Progesterone receptor; against Neutrophil elastase; in series [3] (mdck); in [4]; in [5]; in [6]) was “Not Active” throughout. Besides, the Ki entry (in [1]; on Cytochrome P450 2E1) was “Not Active” each time.

Take `CC(=O)N1CCN(c2ccc(OCC3COC(Cn4ccnc4)(c4ccc(Cl)cc4Cl)O3)cc2)CC1` (centres undefined) [KETOCONAZOLE]: the IC50 result in series [1] is “Not Active”; on Substance-K receptor (read-out: IC50) it was 17.2 µM; in series [2] it was “Not Active”; against Cytochrome P450 2E1, “Not Active”; on D(1A) dopamine receptor it was “Not Active”; on Glycine receptor, “Not Active”. The half-inhibitory concentration (IC50) entry on Progesterone receptor is “Not Active”; at Neutrophil elastase it was “Not Active”; in series [3] (read-out: IC50), 24.2 µM; in [4], “Not Active”; in [5], “Not Active”; in series [6] it was “Not Active”. Also, the Ki result in series [1] is “Not Active”; at Substance-K receptor (read-out: Ki), 5.75 µM; on Cytochrome P450 2E1, “Not Active”; in [3] (read-out: Ki), 24 µM.

For the compound `COCCCOc1ccnc(C[S+]([O-])c2nc3ccccc3[nH]2)c1C` (centres undefined) [RABEPRAZOLE], the IC50 result (in series [1]; on Substance-K receptor (cho); in series [2]; against Cytochrome P450 2E1; on D(1A) dopamine receptor; at Glycine receptor) was “Not Active” in each case. The IC50 result (on Progesterone receptor; at Neutrophil elastase; in [3] (mdck); in series [4]; in series [5]; in series [6]) was “Not Active” in each case. Besides, the Ki entry (in series [1]; at Cytochrome P450 2E1) was “Not Active” in each case.

As for `CNC(=C[N+](=O)[O-])NCCSCc1ccc(CN(C)C)o1` [RANITIDINE], the 50% inhibitory concentration (IC50) entry (in [1]; against Substance-K receptor (cho); in series [2]; on Cytochrome P450 2E1; on D(1A) dopamine receptor; on Glycine receptor) was “Not Active” throughout. The half-inhibitory concentration (IC50) result (on Progesterone receptor; against Neutrophil elastase; in series [3] (mdck); in series [4]; in series [5]; in series [6]) was “Not Active” each time. Also, the Ki entry (in series [1]; on Cytochrome P450 2E1) was “Not Active” each time.

On to `CO[C@H]1/C=C/O[C@@]2(C)Oc3c(C)c(O)c4c(c3C2=O)C2=NC3(CCN(CC(C)C)CC3)NC2=C(NC(=O)/C(C)=C\C=C\[C@H](C)[C@H](O)[C@@H](C)[C@@H](O)[C@@H](C)[C@H](OC(C)=O)[C@@H]1C)C4=O` [RIFABUTIN], for which the concentration for half-maximal inhibition (IC50) entry (in [1]; at Substance-K receptor (cho); in series [2]; at Cytochrome P450 2E1; at D(1A) dopamine receptor; on Glycine receptor) was “Not Active” each time. Also, the IC50 result (at Progesterone receptor; on Neutrophil elastase; in series [3] (mdck); in series [4]; in series [5]; in series [6]) was “Not Active” throughout. For the same compound, the Ki entry (in series [1]; on Cytochrome P450 2E1) was “Not Active” in each case.

Turning to `[H]/N=C(/N)N[C@H]1[C@H](O)[C@@H](O)[C@H](O[C@@H]2O[C@@H](C)[C@](O)(C=O)[C@H]2O[C@@H]2O[C@@H](CO)[C@H](O)[C@@H](O)[C@@H]2NC)[C@@H](N/C(N)=N\[H])[C@@H]1O` [STREPTOMYCIN], the IC50 entry (in series [1]; against Substance-K receptor (cho); in [2]; against Cytochrome P450 2E1; on D(1A) dopamine receptor; against Glycine receptor) was “Not Active” in each case. Further, the half-maximal inhibitory concentration (IC50) result (at Progesterone receptor; at Neutrophil elastase; in series [3] (mdck); in series [4]; in series [5]; in [6]) was “Not Active” in each case. In addition, the Ki entry (in [1]; on Cytochrome P450 2E1) was “Not Active” each time.

The values are drawn from ChEMBL document CHEMBL1909046, “DrugMatrix in vitro pharmacology data”.
